Patent publication US9788552B2, “Use of a natural grape marc extract in order to stimulate the natural defenses of plants” (CENTRE NATIONAL DE LA RECHERCHE SCIENTIFIQUE—CNRS, priority 2010, dated 2017)

Test system: tobacco leaf
Assay: Tobacco leaf infiltration tests, macroscopic symptoms under white light
Assay type: in vivo
Settings: 50 μl, 8 days after infiltration
Procedure: Various tobacco leaf infiltration tests were carried out with 50 μl of solution as follows: Eight days after infiltration, macroscopic symptoms were observed under white light and under UV light (wavelength=312 nm). In the figures, the numbers correspond to the spot of infiltration of the test of the same number.

Row | SMILES | chlorosis or necrosis at the infiltrated sites (10 mM, white light (Test 6)) | necrosis in infiltrated foliar tissues (2 mM, white light (Test 7, positive control))
1 | CC(N)CC(=O)O (stereo not drawn) [BABA, β-aminobutyric acid] | do not induce chlorosis or necrosis | –
2 | O=C(O)c1ccccc1O [Salicylic acid, salicylic acid] | – | causes necrosis
